Test [1] has as its system HIV-1 clinical isolate 2 (Q151Mc + K70Q). In words: Single-cycle drug susceptibility assay (MAGIC-5 cells), clinical isolate 2. The note with it: Human immunodeficiency virus 1; clinical isolate 2, MAGIC-5 cells. The format is cell-based. How it is done:
(§1) HIV was isolated from fresh plasma immediately after collection of clinical samples from study participants at the outpatient clinic of the AIDS Clinical Center (ACC), International Medical Center of Japan. The Institutional Review Board approved this study (IMCJ-H13-80) and a written consent was obtained from all participants.
(§2) Susceptibilities to various RT inhibitors were determined using the MAGIC-5 cells which are HeLa cells stably transfected with a β-galactosidase gene under the control of an HIV long terminal repeat promoter, and with vectors that express the CD4 receptor and the CCR5 co-receptor under the control of the CMV promoter as described previously. Briefly, MAGIC-5 cells were infected with diluted virus stock (100 blue forming units) in the presence of increasing concentrations of RT inhibitors, cultured for 48 h, fixed, and stained with X-Gal (5-bromo-4-chloro-3-indolyl-β-D-galacto-pyranoside). The stained cells were counted under a light microscope.

The subject of test [2] is HIV-1 clinical isolate 1 (Q151Mc-containing). In words: Single-cycle drug susceptibility assay (MAGIC-5 cells), clinical isolate 1. The format is cell-based. To be noted: Human immunodeficiency virus 1; clinical isolate 1, MAGIC-5 cells. How it is done: as §1, §2
Test [3] deals with HIV-1 NL4-3 strain (WT). Briefly: microbe, parasite or virus in culture. To be noted: Human immunodeficiency virus 1, NL43; WT, MAGIC-5 cells, Table S1; read-out: EC50. The format is cell-based. The procedure: as §2
The test system of test [4] is HIV-1 WT. Briefly: Single-cycle drug susceptibility assay (MAGIC-5 cells), recombinant WT clone. The format is cell-based. The note with it: Human immunodeficiency virus 1, Table S2. How it is done: (§3) The NL4-3-based molecular clone was constructed by replacing the pol-coding region with the HIV-1 BH10 strain. […] Each molecular clone was transfected into COS-7 cells. Cells were grown for 48 h, and culture supernatants were harvested and stored at −80°C until use.
as §2

For test [5], the system named is HIV-1 Q151Mc/K70N. Briefly: Single-cycle drug susceptibility assay (MAGIC-5 cells). The format is cell-based. How it is done:
as §3, §2

Test [6] has as its system HIV-1 K70R. Described as above. The format is cell-based. How it is done:
as §3, §2

The subject of test [7] is HIV-1 K70N. The description is as above. The format is cell-based. How it is done:
as §3, §2

Test [8] concerns HIV-1 Q151Mc/K70G. The description is as above. The format is cell-based. How it is done: as §3, §2
The test system of test [9] is HIV-1 Q151Mc/K70R. The description is as above. The format is cell-based. The procedure: as §3, §2
For test [10], the system named is HIV-1 Q151Mc/K70Q. The test is described as above. The format is cell-based. To be noted: Human immunodeficiency virus 1, MAGIC-5; Q151Mc/K70Q. The procedure: as §3, §2
The test system of test [11] is HIV-1 K70G. The test is described as above. The format is cell-based. The procedure:
as §3, §2

The test system of test [12] is HIV-1 K70T. The test is described as above. The format is cell-based. How it is done: as §3, §2
Test [13] deals with HIV-1 K70Q. Described as above. The format is cell-based. To be noted: Human immunodeficiency virus 1, MAGIC-5; K70Q. How it is done:
as §3, §2

The subject of test [14] is HIV-1 K70E. Described as above. The format is cell-based. How it is done:
as §3, §2

For test [15], the system named is HIV-1 Q151Mc/K70E. The description is as above. The format is cell-based. How it is done:
as §3, §2

Test [16] relates to HIV-1 Q151Mc. Described as above. The format is cell-based. The note with it: Human immunodeficiency virus 1, MAGIC-5. The procedure:
as §3, §2

The subject of test [17] is HIV-1 Q151Mc/K70T. The test is described as above. The format is cell-based. How it is done: as §3, §2
Test [18] deals with T1, HIV-1 RT K70Q/Q151Mc (Human immunodeficiency virus type 1 group M subtype B, UniProt P03366, A661V/F676L/F715Y/K669Q/Q750M/V674I).
T1 construct: made in house; host or cells: Escherichia coli BL21
Briefly: Pre-steady state kinetics of binding and incorporation. The format is biochemical. The note with it: K70Q/Q151Mc RT. The procedure: (§4) Determination of active site concentrations in the different preparations of WT and mutant RTs were performed using pre-steady state burst experiments. […] The reactions were quenched at various times (10 ms to 5 s) by adding EDTA to a final concentration of 50 mM. The amounts of product (P18-dAMP) were quantitated and fit to the following burst equation: [drawing 1] (1) where A is the amplitude of the burst phase that represents the RT-DNA complex at the start of the reaction, k obs is the observed burst rate constant for dNTP incorporation, k ss is the steady state rate constant, and t is the reaction time. The rate constant of the linear phase (kcat) can be estimated by dividing the slope of the linear phase by the enzyme concentration. The active site concentration and template/primer binding affinity (KD-DNA) were determined by plotting the amplitude (A) against the concentration of template/primer. The data were fit using non-linear regression to a quadratic equation: [drawing 2] (2) where KD is the dissociation constant for the RT-DNA complex, and [RT] is the concentration of active polymerase molecules. Subsequent biochemical experiments were performed using corrected active site concentrations, [43].
(§5) HIV-1 RT (50 nM active sites) was pre-incubated with 50 nM T31/P18 in one syringe (Syringe A), whereas varying concentrations of dNTP and 10 mM MgCl2 were kept in another syringe (Syringe B). The solutions were rapidly mixed to initiate reactions, which were subsequently quenched at various times (5 ms to 10 s) by adding EDTA to a final concentration of 50 mM. The products from each quenched reaction were resolved, quantitated, and plotted as described above. The data were fit by non-linear regression to the burst equation (Eq 1).
(§6) To obtain the dissociation constant KD-dNTP for dNTP binding to the RT-DNA complex, the observed burst rates (kobs) were fit to the hyperbolic equation (Eq. 3) using nonlinear regression: [drawing 3] (3) where kpol is the optimal rate of dNTP incorporation.
(§7) The kinetics of TFV incorporation by the WT and mutant enzymes were carried out in a manner similar to that employed for natural dNTP substrate except the time of reactions. It was noted that the mutant enzymes required longer time to incorporate TFV compared to the WT HIV-1 RT (detailed in the Results section).

For test [19], the target named is T2, HIV-1 RT WT (Human immunodeficiency virus type 1 group M subtype B, UniProt P03366).
T2 construct: made in house; host or cells: Escherichia coli BL21
The test is described as above. The format is biochemical. How it is done: as §4, §5, §6, §7

In test [20] the target is T3, HIV-1 RT Q151Mc (Human immunodeficiency virus type 1 group M subtype B, UniProt P03366, A661V/F676L/F715Y/Q750M/V674I).
T3 construct: made in house; host or cells: Escherichia coli BL21
The description is as above. The format is biochemical. The procedure: as §4, §5, §6, §7

Test [21] concerns the target T4, HIV-1 RT K70Q (Human immunodeficiency virus type 1 group M subtype B, UniProt P03366, K669Q).
T4 construct: made in house; host or cells: Escherichia coli BL21
The test is described as above. The format is biochemical. The note with it: K70Q RT. How it is done:
The reactions were quenched at various times (10 ms to 5 s) by adding EDTA to a final concentration of 50 mM. The amounts of product (P18-dAMP) were quantitated and fit to the following burst equation: [drawing 1] (1) where A is the amplitude of the burst phase that represents the RT-DNA complex at the start of the reaction, k obs is the observed burst rate constant for dNTP incorporation, k ss is the steady state rate constant, and t is the reaction time. The rate constant of the linear phase (kcat) can be estimated by dividing the slope of the linear phase by the enzyme concentration. The active site concentration and template/primer binding affinity (KD-DNA) were determined by plotting the amplitude (A) against the concentration of template/primer. The data were fit using non-linear regression to a quadratic equation: [drawing 2] (2) where KD is the dissociation constant for the RT-DNA complex, and [RT] is the concentration of active polymerase molecules. Subsequent biochemical experiments were performed using corrected active site concentrations, [43].
as §5, §6

Where “and” joins values, the source holds several entries; their conditions need not be identical. Equal entries are not always repeated.

Turning to `Cc1ccnc2c1NC(=O)c1cccnc1N2C1CC1` [NVP, nevirapine], the values for the EC50 in test [1], in test [2] and in [3] were > 10 µM, > 10 µM and 0.05 ± 0.004 µM, respectively.
On to `O=c1[nH]cnc2c1ncn2[C@H]1CC[C@@H](CO)O1` [ddI, didanosine], for which the EC50 in test [4] was 2.4 ± 0.26 µM; in [1], > 100 µM; in test [5] (Human immunodeficiency virus 1, MAGIC-5, Q151Mc/K70N) it was 109 ± 4.4 µM; in test [6] (Human immunodeficiency virus 1, MAGIC-5, K70R), 3.3 ± 0.29 µM; in [7] (Human immunodeficiency virus 1, MAGIC-5, K70N), 3.7 ± 0.32 µM; in [8] (Human immunodeficiency virus 1, MAGIC-5, Q151Mc/K70G), 59 ± 5 µM. For the same compound, the concentration for a half-maximal effect (EC50) in test [9] (Human immunodeficiency virus 1, MAGIC-5, Q151Mc/K70R) came to 53 ± 3.1 µM; in test [10], 108 ± 2.5 µM; in test [11] (Human immunodeficiency virus 1, MAGIC-5, K70G), 16 ± 1.5 µM; in [12] (Human immunodeficiency virus 1, MAGIC-5, K70T) it was 8.9 ± 0.31 µM; in [13], 12 ± 1.7 µM; in test [14] (Human immunodeficiency virus 1, MAGIC-5, K70E), 13 ± 3.5 µM. Besides, the EC50 in [15] (Human immunodeficiency virus 1, MAGIC-5, Q151Mc/K70E) came to 30 ± 1.7 µM; in test [16], 45 ± 1 µM; in test [17] (Human immunodeficiency virus 1, MAGIC-5, Q151Mc/K70T), 13 ± 1.5 µM; in test [2], 29.3 ± 3.06 µM; in test [3], 2.5 ± 0.35 µM. The “Fold increase in EC50 compared to HIV-1 Q151Mc” value in test [5] (Q151Mc/K70N vs Q151Mc) is on record as “(2.4) fold”; in [8] (Q151Mc/K70G vs Q151Mc), “(1.3) fold”; in [9] (Q151Mc/K70R vs Q151Mc), “(1.2) fold”; in test [15] (Q151Mc/K70E vs Q151Mc) it was “(0.7) fold”; in test [17] (Q151Mc/K70T vs Q151Mc) it was “(0.3) fold”. Moreover, the “Fold increase in EC50 compared to HIV-1 WT” value in [6] (K70R vs WT) is recorded as “(1.4) fold”; in test [7] (K70N vs WT), “(1.5) fold”; in test [11] (K70G vs WT) it was “(6.7) fold”; in [12] (K70T vs WT) it was “(3.7) fold”; in test [14] (K70E vs WT), “(5.4) fold”.
As for `Nc1ncnc2c1ncn2[C@H]1C[C@H](O)[C@@H](COP(=O)(O)OP(=O)(O)OP(=O)(O)O)O1` [dATP], the “k pol/Kd” value in test [18] was 2.9e+06 M⁻¹ s⁻¹ and 2.9e+06 ± 300000 M⁻¹ s⁻¹; in [19], 2.4e+06 M⁻¹ s⁻¹ and 2.4e+06 ± 200000 M⁻¹ s⁻¹; in test [20], 3.3e+06 M⁻¹ s⁻¹ and 3.3e+06 ± 300000 M⁻¹ s⁻¹. In addition, the k pol in test [18] (T31/P18, 37°C) was 14.6 s⁻¹ and 14.6 ± 1.6 s⁻¹; in test [19] (T31/P18, 37°C), 6.3 s⁻¹ and 6.3 ± 0.5 s⁻¹; in [20] (T31/P18, 37°C), 17.9 s⁻¹ and 17.9 ± 0.4 s⁻¹; in [21] (T31/P18, 37°C) it was 8.4 ± 0.4 s⁻¹. Also, the Kd in [18] (binding to RT-DNA complex) is 5 ± 0.07 µM; in test [19] (binding to RT-DNA complex) it was 2.6 ± 0.1 µM; in test [20] (binding to RT-DNA complex), 5.4 ± 0.5 µM; in [21] (binding to RT-DNA complex), 3.8 ± 0.6 µM.

These data come from paper PMC3020970, “K70Q Adds High-Level Tenofovir Resistance to “Q151M Complex” HIV Reverse Transcriptase through the Enhanced Discrimination Mechanism” (PLoS ONE, 2011).
